Assay results as given in the supplement of paper PMC10307832.

Assays:
Assay in all cases: relative viability (nuclei count vs DMSO), 5 days (fraction); higher = more cells survive
[1] = compound: Cn1cnc2c(F)c(Nc3ccc(Br)cc3Cl)c(C(=O)NOCCO)cc21 [Selumetinib] + CC(=O)c1c(C)c2cnc(Nc3ccc(N4CCNCC4)cn3)nc2n(C2CCCC2)c1=O [Palbociclib] (partner 0.5 µM)
How it was run: (§1)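 Cells from lung cancer lines were seeded into 1536-well plates and, one day later, dosed by pin tool. Treatments were either a single drug or a fixed dose of an anchor drug with five library-drug doses (not always all listed) in √10 steps. After 5 days, nuclei were stained in a one-step fixation (final 0.05% Triton X-100, 1% formaldehyde, 1 ug/ml Hoechst) and counted on 4× images, and relative viability is the treated-to-vehicle nuclei ratio, as the median of duplicate plates.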

Venetoclax + Linsitinib = compound: CC1(C)CCC(CN2CCN(c3ccc(C(=O)NS(=O)(=O)c4ccc(NCC5CCOCC5)c([N+](=O)[O-])c4)c(Oc4cnc5[nH]ccc5c4)c3)CC2)=C(c2ccc(Cl)cc2)C1 [Venetoclax] + C[C@]1(O)C[C@@H](c2nc(-c3ccc4ccc(-c5ccccc5)nc4c3)c3c(N)nccn32)C1 [Linsitinib] (partner 1 µM)
How it was run: as §1

Venetoclax + Bortezomib = compound: CC1(C)CCC(CN2CCN(c3ccc(C(=O)NS(=O)(=O)c4ccc(NCC5CCOCC5)c([N+](=O)[O-])c4)c(Oc4cnc5[nH]ccc5c4)c3)CC2)=C(c2ccc(Cl)cc2)C1 [Venetoclax] + CC(C)C[C@H](NC(=O)[C@H](Cc1ccccc1)NC(=O)c1cnccn1)B(O)O [Bortezomib] (partner 0.002 µM)
How it was run: as §1

Selumetinib + Dasatinib = compound: Cn1cnc2c(F)c(Nc3ccc(Br)cc3Cl)c(C(=O)NOCCO)cc21 [Selumetinib] + Cc1nc(Nc2ncc(C(=O)Nc3c(C)cccc3Cl)s2)cc(N2CCN(CCO)CC2)n1 [Dasatinib] (partner 0.075 µM)
How it was run: as §1

SW 1573
relative viability ([1]; first compound 0.02 µM): 0.337
relative viability ([1]; first compound 0.06325 µM): 0.294
relative viability ([1]; first compound 0.2 µM): 0.365
relative viability ([1]; first compound 0.6325 µM): 0.312
relative viability (Venetoclax + Linsitinib; first compound 0.01 µM): 0.93
relative viability (Venetoclax + Linsitinib; first compound 0.03162 µM): 0.766
relative viability (Venetoclax + Linsitinib; first compound 0.1 µM): 0.916
relative viability (Venetoclax + Linsitinib; first compound 0.3162 µM): 0.835
relative viability (Venetoclax + Linsitinib; first compound 1 µM): 0.891
relative viability (Venetoclax + Bortezomib; first compound 0.01 µM): 0.983
relative viability (Venetoclax + Bortezomib; first compound 0.03162 µM): 1.06
relative viability (Venetoclax + Bortezomib; first compound 0.1 µM): 1.02
relative viability (Venetoclax + Bortezomib; first compound 0.3162 µM): 1.18
relative viability (Venetoclax + Bortezomib; first compound 1 µM): 0.997
relative viability (Selumetinib + Dasatinib; first compound 0.02 µM): 0.589
relative viability (Selumetinib + Dasatinib; first compound 0.06325 µM): 0.362
relative viability (Selumetinib + Dasatinib; first compound 0.2 µM): 0.534
relative viability (Selumetinib + Dasatinib; first compound 0.6325 µM): 0.446
